From PubChem BioAssay (NCI) come the findings set out here.

Among the test systems are KM12 colon; UO-31 renal; SW-620 colon; SF-268 CNS; CCRF-CEM leukemia; RPMI-8226 leukemia; TK-10 renal; K-562 leukemia; HS 578T breast; MDA-N.
What all share (assay): growth of human tumour cells (NCI), 48 h

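Following 48 hours of exposure in 96-well plates, responses at five concentrations were used to interpolate endpoints linearly. Here, GI50 denotes the concentration required for 50% inhibition of growth. TGI marks complete inhibition of growth.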 Where a SMILES comes first, the peptide text is derived from it. The star is where a group is joined. Palmitoyl = CCCCCCCCCCCCCCCC(=O)*

Regarding `Clc1ccccc1C1=NN(c2ccccc2)C2c3cc(Br)ccc3OCC12` (stereo unspecified), the TGI with KM12 colon, in the experiment with UO-31 renal, with SW-620 colon, with SF-268 CNS, with CCRF-CEM leukemia and in the experiment with RPMI-8226 leukemia was more than 100 µM each time. Moreover, the TGI in the experiment with TK-10 renal and in the experiment on K-562 leukemia was more than 100 µM throughout.

For the molecule `CCCCCCCCCCCCCCCC(=O)NC(CCCCN)C(=O)NCC(=O)NC(Cc1ccccc1)C(=O)N1CCCC1C(=O)NC(CO)C(=O)NC(Cc1ccc(O)cc1)C(=O)NC(CCCCN)C(=O)NC(CC(C)C)C(=O)NC(CCCN=C(N)N)C(=O)N1CCCC1C(=O)NCC(N)=O` (stereo unspecified) (Palmitoyl-KGFPSYKLRPG-NH2; configuration not given here), the GI50 in the experiment on KM12 colon was 19.4 µM; in the experiment on HS 578T breast, 31.2 µM; in the experiment with UO-31 renal, 20.2 µM; in the experiment on SW-620 colon it was 26 µM; in the experiment with SF-268 CNS, 21.7 µM; with CCRF-CEM leukemia, 20.5 µM. The GI50 was 13.1 µM in the experiment with RPMI-8226 leukemia, 21.9 µM with TK-10 renal and 22.2 µM in the experiment on K-562 leukemia. The TGI is 46.6 µM in the experiment on KM12 colon; more than 100 µM in the experiment with HS 578T breast; 49.9 µM with UO-31 renal; 79.5 µM with SW-620 colon; 46.1 µM in the experiment with SF-268 CNS; 40.2 µM in the experiment with CCRF-CEM leukemia. Besides, the TGI in the experiment on RPMI-8226 leukemia was found to be 32.5 µM; in the experiment with TK-10 renal, 44.8 µM; with K-562 leukemia it was 47.9 µM.

For `Cc1[nH]c(=O)nc(N/N=C/c2ccc(O)cc2)c1C(=O)Nc1ccc(Cl)cc1`, the TGI with KM12 colon, in the experiment on UO-31 renal, with SW-620 colon, with SF-268 CNS, in the experiment on CCRF-CEM leukemia and in the experiment on RPMI-8226 leukemia was more than 100 µM in each case. Besides, the TGI in the experiment with TK-10 renal and in the experiment on K-562 leukemia was more than 100 µM each time.

As for `COc1cc2cc3c4c(cc(OC)c(OC)c4c2cc1OC)CCN3C(=O)OCCBr`, the TGI with KM12 colon is more than 100 µM; in the experiment with UO-31 renal, more than 100 µM; in the experiment on SW-620 colon it was more than 100 µM; with SF-268 CNS, more than 100 µM; in the experiment on CCRF-CEM leukemia, 88.2 µM; in the experiment with TK-10 renal, more than 100 µM.

For `COC1(OC)N=C(N)C2(C#N)/C(=N/N(C)C)CC(C)C12C#N` (stereo unspecified), the TGI in the experiment with KM12 colon, in the experiment with HS 578T breast, in the experiment on UO-31 renal, in the experiment with MDA-N, in the experiment with SW-620 colon and in the experiment with SF-268 CNS was more than 100 µM in each case. Also, the TGI in the experiment with CCRF-CEM leukemia, in the experiment on TK-10 renal and with K-562 leukemia was more than 100 µM in each case.

Turning to `O=C(Cc1nc2ccc([N+](=O)[O-])cc2[nH]c1=O)C(=O)Nc1cc(Cl)c(Cl)cc1Cl`, the TGI in the experiment with KM12 colon, with HS 578T breast, in the experiment with UO-31 renal, with MDA-N, with SW-620 colon and with SF-268 CNS was more than 100 µM throughout. Moreover, the TGI with CCRF-CEM leukemia and in the experiment with TK-10 renal was more than 100 µM in each case.

Turning to `COc1cc(CC(=O)c2ccc3c(c2)OCO3)cc(OC)c1OC`, the TGI with KM12 colon is more than 100 µM; in the experiment with UO-31 renal, more than 100 µM; in the experiment with SW-620 colon, 46.3 µM; with SF-268 CNS, more than 100 µM; in the experiment with CCRF-CEM leukemia, more than 100 µM; in the experiment with RPMI-8226 leukemia it was more than 100 µM. Also, the TGI in the experiment on TK-10 renal and in the experiment with K-562 leukemia was more than 100 µM throughout.

For the molecule `Fc1nc(F)nc(-c2c3ccccc3c3n2CCS3)n1`, the TGI with KM12 colon, in the experiment on UO-31 renal, with SW-620 colon, with SF-268 CNS, in the experiment on CCRF-CEM leukemia and in the experiment with RPMI-8226 leukemia was more than 100 µM each time. This molecule also returned a TGI in the experiment on K-562 leukemia of more than 100 µM.

`Cc1cccc(N2CCN(S(=O)(=O)c3ccc(Cl)cc3)C2=N)c1C`: the TGI in the experiment with KM12 colon, in the experiment with UO-31 renal, in the experiment with MDA-N, in the experiment with SW-620 colon, in the experiment on SF-268 CNS and with RPMI-8226 leukemia was more than 100 µM each time. The TGI in the experiment with TK-10 renal and in the experiment with K-562 leukemia was more than 100 µM throughout.

For the molecule `CN(C)CCNC(=O)c1cccc2c(NC(CS)C(=O)O)c3ccccc3nc12` (stereo unspecified), the TGI is more than 100 µM in the experiment with KM12 colon; 11.8 µM with UO-31 renal; 20 µM in the experiment with MDA-N; more than 100 µM in the experiment with SW-620 colon; 39.6 µM in the experiment on SF-268 CNS; more than 100 µM in the experiment on CCRF-CEM leukemia. Further, the TGI with TK-10 renal and in the experiment on K-562 leukemia was more than 100 µM in each case.

As to `COC(=O)C(=O)C(C(=O)C(=O)Nc1ccccc1C(N)=O)c1nc2ccc(C(=O)c3ccccc3)cc2[nH]c1=O` (stereo unspecified), the TGI in the experiment with KM12 colon, in the experiment with UO-31 renal, with SW-620 colon, with SF-268 CNS, in the experiment on CCRF-CEM leukemia and with RPMI-8226 leukemia was more than 100 µM throughout. Moreover, the TGI in the experiment on TK-10 renal and in the experiment on K-562 leukemia was more than 100 µM in each case.

As to `CCCCCCCCC(=O)NCCCNCCCNC(=O)CCCCCCCC`, the TGI in the experiment on KM12 colon turned out to be 3.48 µM; with UO-31 renal, 27.6 µM; in the experiment with SW-620 colon, 7.3 µM; with SF-268 CNS, 26 µM; in the experiment with CCRF-CEM leukemia, 14.9 µM; in the experiment with RPMI-8226 leukemia, 11 µM. Further, the TGI in the experiment with TK-10 renal is 30.2 µM; in the experiment with K-562 leukemia it was 4.55 µM.

As to `COc1ccccc1NC(=O)C(=O)C1C(=O)Nc2ccccc2S1=O` (stereo unspecified), the TGI with KM12 colon, in the experiment with UO-31 renal, with SW-620 colon, in the experiment on SF-268 CNS, in the experiment with CCRF-CEM leukemia and in the experiment with TK-10 renal was more than 100 µM each time. This molecule also displayed a TGI with K-562 leukemia of more than 100 µM.

Turning to `CSc1nc2c(ncn2C2OCC(O)C(O)C2O)c(=O)[nH]1` (stereo unspecified), the TGI with KM12 colon, with UO-31 renal, with SW-620 colon, with SF-268 CNS, with CCRF-CEM leukemia and in the experiment with RPMI-8226 leukemia was more than 100 µM throughout. Also, the TGI in the experiment on K-562 leukemia is more than 100 µM.

Consider `O=C(CCN1CCCCC1CO)Nc1ccc2c(c1)C(=O)c1ccc(NC(=O)CCN3CCCCC3CO)cc1C2=O` (stereo unspecified), for which the TGI in the experiment with KM12 colon came to 17.1 µM; in the experiment with UO-31 renal it was 26.7 µM; in the experiment on SW-620 colon it was 27 µM; in the experiment with SF-268 CNS it was 40.6 µM; in the experiment with CCRF-CEM leukemia, 30.5 µM; in the experiment with RPMI-8226 leukemia, 48 µM. Besides, the TGI in the experiment with TK-10 renal amounted to 27.2 µM; in the experiment on K-562 leukemia it was 46.1 µM.
